Test results from US20100160397A1, “OXAZOLE DERIVATIVES AND THEIR USE IN THE TREATMENT OF DIABETES AND OBESITY” (priority 2006, published 2010).

Biological target: T1, human DGAT1 (Homo sapiens, UniProt O75907)
T1 construct: made in house; host or cells: sf9 insect cells (baculovirus), membrane fraction
T1 sequence (O75907 1-488): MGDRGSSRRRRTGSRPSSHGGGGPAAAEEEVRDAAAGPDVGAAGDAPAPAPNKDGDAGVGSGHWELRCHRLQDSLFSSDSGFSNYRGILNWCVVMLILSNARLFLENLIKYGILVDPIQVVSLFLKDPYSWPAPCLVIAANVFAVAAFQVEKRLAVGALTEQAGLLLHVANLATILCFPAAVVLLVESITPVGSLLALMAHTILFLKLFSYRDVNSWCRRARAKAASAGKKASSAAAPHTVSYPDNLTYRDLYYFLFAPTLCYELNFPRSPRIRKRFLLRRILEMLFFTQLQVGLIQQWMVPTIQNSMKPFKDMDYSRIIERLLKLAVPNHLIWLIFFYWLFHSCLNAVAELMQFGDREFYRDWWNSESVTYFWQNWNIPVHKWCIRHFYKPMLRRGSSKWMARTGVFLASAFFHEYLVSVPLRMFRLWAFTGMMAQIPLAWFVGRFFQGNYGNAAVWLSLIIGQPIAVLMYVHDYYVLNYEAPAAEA
Test: Human Enzyme Assay (DGAT1 inhibition, 14C oleoyl CoA incorporation into triolein)
Format: biochemical
Settings: human DGAT1 expressed in insect cell (sf9) membranes; 30 μM 14C oleoyl coenzyme A, 30 minutes at room temperature
Experimental: As indicated above, all of the compounds, and their corresponding pharmaceutically-acceptable salts, are useful in inhibiting DGAT1.
The in vitro assay to identify DGAT1 inhibitors uses human DGAT1 expressed in insect cell membranes as the enzyme source (Proc. Natl. Acad. Sci. 1998, 95, 13018-13023). Briefly, sf9 cells were infected with recombinant baculovirus containing human DGAT1 coding sequences and harvested after 48 h. Cells were lysed by sonication and membranes isolated by centrifuging at 28000 rpm for 1 h at 4° C. on a 41% sucrose gradient. The membrane fraction at the interphase was collected, washed, and stored in liquid nitrogen.
DGAT1 activity was assayed by a modification of the method described by Coleman (Methods in Enzymology 1992, 209, 98-102). Compound at 1-10 μM was incubated with 0.4 μg membrane protein, 5 mM MgCl2, and 10 0 μM 1,2 dioleoyl-sn-glycerol in a total assay volume of 200 μl in plastic tubes. The reaction was started by adding ^14C oleoyl coenzyme A (30 μM final concentration) and incubated at room temperature for 30 minutes. The reaction was stopped by adding 1.5 mL 2-propanol:heptane:water (80:20:2). Radioactive triolein product was separated into the organic phase by adding 1 mL heptane and 0.5 mL 0.1 M carbonate buffer pH 9.5. DGAT1 activity was quantified by counting aliquots of the upper heptane layer by liquid scintillography.

IC50: 32 µM
SMILES: COC(=O)C[C@H]1CC[C@H](c2ccc(NC(=O)c3coc(Nc4ccc(F)c(F)c4)n3)cc2)CC1 [Example 2, Methyl trans-2-{4-[4-({2-[(3,4-difluorophenyl)amino]-1,3-oxazole-4-carbonyl}amino)phenyl]cyclohexyl}acetate]
